Read-outs that look alike come from different tables or passages of the source.
Experiments:
MCV-TOP = assay: Microtiter plate religation assay for MCV topoisomerase; type: biochemical, molluscum contagiosum virus
EU-TOPO = molecular target: T1, EU-TOPO (Bos taurus, UniProt F1MN93); type: biochemical, mammalian; conditions: for dependence of EU-TOPO inhibition on the base 3′ of the scissile phosphate: EU TG+P compared with EU TA+P substrate; for IC50: read-out: IC50, inhibition of religation by EU-TOPO
T1 construct: purchased Gibco-BRL
T1 sequence (F1MN93 entry or part of it): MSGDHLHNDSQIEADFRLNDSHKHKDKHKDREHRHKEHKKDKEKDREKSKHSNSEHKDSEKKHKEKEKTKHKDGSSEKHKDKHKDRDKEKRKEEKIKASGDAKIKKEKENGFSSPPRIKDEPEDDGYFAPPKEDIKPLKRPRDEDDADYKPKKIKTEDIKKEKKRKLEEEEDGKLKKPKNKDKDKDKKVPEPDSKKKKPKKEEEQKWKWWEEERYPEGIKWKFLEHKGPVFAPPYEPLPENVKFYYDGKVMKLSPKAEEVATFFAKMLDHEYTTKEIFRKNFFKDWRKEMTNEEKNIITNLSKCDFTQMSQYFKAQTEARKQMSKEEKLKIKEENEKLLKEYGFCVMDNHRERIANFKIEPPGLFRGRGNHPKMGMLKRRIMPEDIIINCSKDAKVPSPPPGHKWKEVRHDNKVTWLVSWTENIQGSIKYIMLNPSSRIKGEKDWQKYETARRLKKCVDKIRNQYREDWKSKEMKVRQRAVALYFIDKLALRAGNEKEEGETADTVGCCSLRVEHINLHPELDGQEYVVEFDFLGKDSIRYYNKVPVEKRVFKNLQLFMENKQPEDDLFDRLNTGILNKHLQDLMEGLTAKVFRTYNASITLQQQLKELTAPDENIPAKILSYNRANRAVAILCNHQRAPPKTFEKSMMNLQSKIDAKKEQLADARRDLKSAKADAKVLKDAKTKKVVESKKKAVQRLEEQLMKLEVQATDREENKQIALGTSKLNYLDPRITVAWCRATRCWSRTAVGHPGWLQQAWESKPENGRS
Text: The DNA substrate was designed to contain a preferred site for topoisomerase IB action identified in Tetrahymena DNA (A. H. Andersen, E. Gocke, B. J. Bonven, O. F. Nielsen and O. Westergaard. 1985. Topoisomerase I has a strong binding preference for a conserved hexadecameric sequence in the promoter region of the rRNA gene from Tetrahymena pyriformis. Nuc. Acids Res. 13, 1543-1556; B. J. Bonven, E. Bocke and O. Westergaard. 1985. A High Affinity Topoisomerase I Binding Sequence is Clustered at DNase I Hypersensitive Sites in Tetrahymena R-Chromatin. Cell 41, 541-551).
Two orders of addition were compared. Reactions were carried out in which enzyme was preincubated with inhibitor before addition of DNA substrate (FIG. 5, “complete”), which would reveal inhibition at any step in the reaction pathway. Reactions were also carried out in which covalent complexes were formed, then inhibitor added, followed by the religation strand (FIG. 5, “religation”). The latter order of addition tested inhibition of the religation step only.
For EU-TOPO, two different substrate DNAs were tested, containing TA or TG as the bases flanking the scissile phosphate. […] 1998. Molecular Modeling Studies of the DNA-Topoisomerase I Ternary Cleavable Complex with Camptothecin. J. Med. Chem. 41, 2216-2226), so such effects were sought to be discriminated using the microtiter assay.
Standard reaction mixture for assaying EU-TOPO contains 2.5 units EU-TOPO, 2 nM substrate oligonucleotide, 20 mM Tris-Cl (pH 8.0), 72 mM KCl, 5 mM MgCl2, 5 mM DTT and 10% DMSO. EU-TOPO was obtained from Gibco-BRL. The EU-TOPO suicide substrate was based on an optimal sequence found in a Tetrahymena rRNA gene (see FIG. 2B) (A. H. Andersen, E. Gocke, B. J. Bonven, O. F. Nielsen and O. Westergaard. 1985. Topoisomerase I has a strong binding preference for a conserved hexadecameric sequence in the promoter region of the rRNA gene from Tetrahymena pyriformis. Nuc. Acids Res. 13, 1543-1556; B. J. Bonven, E. Bocke and O. Westergaard. 1985. A High Affinity Topoisomerase I Binding Sequence is Clustered at DNase I Hypersensitive Sites in Tetrahymena R-Chromatin. Cell 41, 541-551).
After the topoisomerase reactions were completed, mixtures were adjusted to 20 mM Tris-Cl (pH 8.0), 400 mM NaCl, 10 mM EDTA, and 0.1 mg/ml sonicated salmon sperm DNA in a final volume of 100 μl. 400 mM NaCl was omitted in EU-TOPO assay. The samples were added to avidin-coupled microtiter wells (Boehringer Mannheim), which were then gently agitated at room temperature for 1 hr. Unbound DNA was removed by 3 washes (200 μl, 5 min each) with 30 mM NaOH, 200 mM NaCl, 1 mM EDTA. Bound DNA was then adjusted to 10 mM Tris-Cl (pH 8.0) and 1 mM EDTA. The relative topoisomerase activity was determined using an anti-digoxigenin ELISA. Anti-digoxigenin-peroxidase Fab fragments (0.01 units, Pierce or Boehringer Mannheim) were added into wells and incubated for 1 hr at 37° C. Unbound Anti-digoxigenin peroxidase Fab fragments were removed by 5 washes (300 μl) with PBS containing 0.1% Tween 20. Bound DNA was then incubated with 200 μl of 3,3′-5,5′-tetramethylbenzidine (TMB) solution (Boehringer Mannheim) until sufficient blue product accumulated. The reaction was terminated by adding 100 μl of 1 M sulfuric acid. The resulting yellow color was quantitated at 450 nm.

Compound | activity against MCV-TOP (MCV-TOP; FIG. 5A) | dependence of EU-TOPO inhibition on the base 3′ of the scissile phosphate (EU-TOPO) | effect on MCV-TOP (MCV-TOP; in the concentration range of the EU-TOPO IC50s (nanomolar)) | IC50 (EU-TOPO; EU TA+P substrate (A/T base pair 3′ of the point of cleavage)) [nM] | IC50 (EU-TOPO; EU TG+P substrate (G/C base pair 3′ of the point of cleavage)) [nM] | inhibition of MCV-TOP, religation step (MCV-TOP; inhibitor added after covalent complex formation, FIG. 5A) | inhibition of MCV-TOP, complete reaction (MCV-TOP; inhibitor added to enzyme before DNA substrate, FIG. 5A) | inhibition of EU-TOPO (EU-TOPO; FIGS. 5B and 5C) | inhibition of EU-TOPO, complete reaction compared with religation (EU-TOPO; two orders of addition)
CC[C@@]1(O)C(=O)OCc2c1cc1n(c2=O)Cc2cc3ccccc3nc2-1 [Camptothecin] | not active | more efficient when the 3′ base was G | – | – | – | – | – | – | –
(−)-epigallocatechin 3-O-gallate [EGCG] | – | far more inhibitory on the DNA substrate containing a G/C base pair 3′ of the point of cleavage | no effect | 500 | 26 | – | – | – | –
Coumermycin A1 | – | not sensitive | – | – | – | not religation | inhibit the complete reaction | inhibited | comparable

From patent publication US6620588B1, “Method of identifying inhibitors of topoisomerase DNA religation” (priority 2000, dated 2003)
